Experimental data published in patent US20050112573A1, “Method of detecting toxic substance” (priority 2001, published 2005).

Test system: yeast genes (level of expressed mRNA)
Assay: DNA chip analysis of expressed mRNA of yeast genes after 2 h culture with a toxic chemical substance
Format: cell-based, Saccharomyces cerevisiae S288C
Experimental: Yeast (Saccharomyces cerevtisiae S288C (α SUC2mal mel gap2 CUP1)) were cultured at 25° C. on YPD medium (yeast extract 1%, polypepton 2%, glucose 2%). One of toxic chemical substances was added to the cell at logarithmic growth phase, and the cell was further cultured for two hours. Cell was cultured without any chemical substance in the same condition, and was used as control. Concentrations of the chemical substances were defined to inhibit the growth of the yeast but not lead to death.
After the completion of cultivation, the culture was centrifuged to collect the cells. To the cells, sodium acetate buffer (50 mM sodium acetate, 10 mM EDTA, 1% SDS) was added, and the mixture was shaken at 65° C. for five minutes, followed by returning to room temperature, and obtaining the supernatant, which procedure was repeated two times. To the supernatant, ½ amount of a solution of phenol/chloroform was added, and the mixture was centrifuged to give a supernatant, which was added with an equal amount of chloroform, and the mixture was centrifuged to give a supernatant. To the supernatant, an equal amount of isopropanol containing 0.3 M sodium acetate was added, and the mixture was allowed to stand at room temperature for 30 minutes, after which the mixture was centrifuged to give a sediment of the whole RNAs. Seventy % ethanol was added to the sediment, and the mixture was again centrifuged to give a sediment, which was then dried and dissolved in water. mRNA was isolated from the whole RNAs as followings. In view of the fact that a poly A chain is attached to the 3′ terminus of mRNA, a polynucleotide having a poly T structure which was immobilized on the surface of latex beads was used to trap the mRNA, and then the mRNA was washed and eluted with spine column (Oligotex-dT30<Super>mRNA Purification Kit, Takara). Reverse transcription of the mRNA was conducted with a reverse transcriptase (Super Script II Reverse Transcriptase; catalogue No. 18064-014, GibcoBRL) using fluorescence-labeled nucleotides to give cDNAs that were introduced with Cy3-dUTP or Cy5-dUTP during the reverse transcription.
The labeled cDNAs were dissolved in TE buffer (10 mM Tris-HCl/1 mM EDTA, pH8.0), and the solution was dropped on the DNA chip containing the whole genes of yeast (DNA Chip Research Inc. Japan) so that the cDNAs were hybridized on the DNA chip at 65° C. for over 12 hours. The fluoresces intensity of the DNA chip was read with a scanner, and the ratio relative to the fluorescence intensity resulting from the absence of chemical substance was estimated as the following, which is shown in Tables 1 to 9: [formula]
In the Tables, “Intensity” indicated in the rightmost column is a value of the level of expressed mRNA of each gene in control cells as divided by the average level of the expressions of the whole genes.

For CdCl2 [(2)], the “The level of expressed mRNA in the presence of chemical substance/” value (yeast gene YKL086W, ratio to control without chemical) was 1.1, the “The level of expressed mRNA in the presence of chemical substance/The level of expressed mRNA in the absence of chemical substance” value (yeast gene YKL096W) was 0.6 and the “The level of expressed mRNA in the presence of chemical substance/” value (yeast gene YKL151C, ratio to control without chemical substance, 2 h culture) was 3.1. The “The level of expressed mRNA in the presence of chemical substance/” value (yeast gene YKL153W, ratio to control without chemical substance, 2 h culture) was 1.4, the “The level of expressed mRNA in the presence of chemical substance/The level of expressed mRNA in the absence of chemical substance” value (yeast gene YKL165C) was 2.0 and the “The level of expressed mRNA in the presence of chemical substance/The level of expressed mRNA in the absence of chemical substance” value (yeast gene YKL193C) was 0.8. The “The level of expressed mRNA in the presence of chemical substance/” value (yeast gene YKL195W, ratio to control without chemical substance, 2 h culture) was 0.5, the “The level of expressed mRNA in the presence of chemical substance/in the absence of chemical substance” value (yeast gene YKR009C) was 1.2 and the “The level of expressed mRNA in the presence of chemical substance/” value (yeast gene YKR091W, ratio to control without chemical) was 2.3. For the same substance, the “The level of expressed mRNA in the presence of chemical substance/” value (yeast gene YLR054C, ratio to control without chemical substance, 2 h culture) was 1.5, the “The level of expressed mRNA in the presence of chemical substance/The level of expressed mRNA in the absence of chemical substance” value (yeast gene YLR120C) was 1.9 and the “The level of expressed mRNA in the presence of chemical substance/The level of expressed mRNA in the absence of chemical substance” value (yeast gene YLR136C) was 9.0. The “The level of expressed mRNA in the presence of chemical substance/” value (yeast gene YLR149C, ratio to control without chemical substance, 2 h culture) was 1.9, the “The level of expressed mRNA in the presence of chemical substance/” value (yeast gene YLR152C, ratio to control without chemical substance, 2 h culture) was 1.3 and the “The level of expressed mRNA in the presence of chemical substance/The level of expressed mRNA in the absence of chemical substance” value (yeast gene YLR178C) was 6.9. For the same substance, the “The level of expressed mRNA in the presence of chemical substance/” value (yeast gene YLR194C, ratio to control without chemical) was 2.2, the “The level of expressed mRNA in the presence of chemical substance/The level of expressed mRNA in the absence of chemical substance” value (yeast gene YLR250W) was 1.0 and the “The level of expressed mRNA in the presence of chemical substance/” value (yeast gene YLR324W, ratio to control without chemical substance, 2 h culture) was 1.2. For the same substance, the “The level of expressed mRNA in the presence of chemical substance/The level of expressed mRNA in the absence of chemical substance” value (yeast gene YLR327C) was 3.3, the “The level of expressed mRNA in the presence of chemical substance/” value (yeast gene YLR350W, ratio to control without chemical substance, 2 h culture) was 1.9 and the “The level of expressed mRNA in the presence of chemical substance/in the absence of chemical substance” value (yeast gene YLR351C) was 1.4. For the same substance, the “The level of expressed mRNA in the presence of chemical substance/The level of expressed mRNA in the absence of chemical substance” value (yeast gene YLR356W) was 2.9, the “The level of expressed mRNA in the presence of chemical substance/The level of expressed mRNA in the absence of chemical substance” value (yeast gene YLR362W) was 1.2 and the “The level of expressed mRNA in the presence of chemical substance/in the absence of chemical substance” value (yeast gene YLR375W) was 1.5. The “The level of expressed mRNA in the presence of chemical substance/” value (yeast gene YLR387C, ratio to control without chemical substance, 2 h culture) was 1.6, the “The level of expressed mRNA in the presence of chemical substance/The level of expressed mRNA in the absence of chemical substance” value (yeast gene YLR391W) was 0.7 and the “The level of expressed mRNA in the presence of chemical substance/The level of expressed mRNA in the absence of chemical substance” value (yeast gene YLR429W) was 1.0. For the same substance, the “The level of expressed mRNA in the presence of chemical substance/” value (yeast gene YLR460C, ratio to control without chemical substance, 2 h culture) was 2.1, the “The level of expressed mRNA in the presence of chemical substance/” value (yeast gene YML117W, ratio to control without chemical substance, 2 h culture) was 2.2 and the “The level of expressed mRNA in the presence of chemical substance/The level of expressed mRNA in the absence of chemical substance” value (yeast gene YMR004W) was 0.9. The “The level of expressed mRNA in the presence of chemical substance/” value (yeast gene YMR009W, ratio to control without chemical substance, 2 h culture) was 1.9, the “The level of expressed mRNA in the presence of chemical substance/” value (yeast gene YMR067C, ratio to control without chemical substance, 2 h culture) was 0.9 and the “The level of expressed mRNA in the presence of chemical substance/” value (yeast gene YMR090W, ratio to control without chemical substance, 2 h culture) was 9.5. For the same substance, the “The level of expressed mRNA in the presence of chemical substance/The level of expressed mRNA in the absence of chemical substance” value (yeast gene YMR094W) was 0.5, the “The level of expressed mRNA in the presence of chemical substance/” value (yeast gene YMR095C, ratio to control without chemical) was 2.0 and the “The level of expressed mRNA in the presence of chemical substance/” value (yeast gene YMR097C, ratio to control without chemical substance, 2 h culture) was 1.0. The “The level of expressed mRNA in the presence of chemical substance/” value (yeast gene YMR102C, ratio to control without chemical substance, 2 h culture) was 2.9, the “The level of expressed mRNA in the presence of chemical substance/The level of expressed mRNA in the absence of chemical substance” value (yeast gene YMR104C) was 14.3 and the “The level of expressed mRNA in the presence of chemical substance/” value (yeast gene YMR107W, ratio to control without chemical substance, 2 h culture) was 3.9. For the same substance, the “The level of expressed mRNA in the presence of chemical substance/” value (yeast gene YMR180C, ratio to control without chemical substance, 2 h culture) was 0.9, the “The level of expressed mRNA in the presence of chemical substance/” value (yeast gene YMR184W, ratio to control without chemical substance, 2 h culture) was 5.4 and the “The level of expressed mRNA in the presence of chemical substance/” value (yeast gene YMR191W, ratio to control without chemical substance, 2 h culture) was 2.4. The “The level of expressed mRNA in the presence of chemical substance/The level of expressed mRNA in the absence of chemical substance” value (yeast gene YMR219W) was 1.1, the “The level of expressed mRNA in the presence of chemical substance/The level of expressed mRNA in the absence of chemical substance” value (yeast gene YMR226C) was 1.8 and the “The level of expressed mRNA in the presence of chemical substance/in the absence of chemical substance” value (yeast gene YMR267W) was 1.8. For the same substance, the “The level of expressed mRNA in the presence of chemical substance/The level of expressed mRNA in the absence of chemical substance” value (yeast gene YMR275C) was 0.7, the “The level of expressed mRNA in the presence of chemical substance/The level of expressed mRNA in the absence of chemical substance” value (yeast gene YMR276W) was 1.4 and the “The level of expressed mRNA in the presence of chemical substance/in the absence of chemical substance” value (yeast gene YMR278W) was 1.7. The “The level of expressed mRNA in the presence of chemical substance/in the absence of chemical substance” value (yeast gene YMR293C) was 1.5, the “The level of expressed mRNA in the presence of chemical substance/” value (yeast gene YMR295C, ratio to control without chemical substance, 2 h culture) was 1.0 and the “The level of expressed mRNA in the presence of chemical substance/The level of expressed mRNA in the absence of chemical substance” value (yeast gene YMR314W) was 1.2. The “The level of expressed mRNA in the presence of chemical substance/” value (yeast gene YMR316W, ratio to control without chemical substance, 2 h culture) was 2.9, the “The level of expressed mRNA in the presence of chemical substance/The level of expressed mRNA in the absence of chemical substance” value (yeast gene YNL006W) was 2.1 and the “The level of expressed mRNA in the presence of chemical substance/The level of expressed mRNA in the absence of chemical substance” value (yeast gene YNL007C) was 2.4. The “The level of expressed mRNA in the presence of chemical substance/” value (yeast gene YNL044W, ratio to control without chemical substance, 2 h culture) was 0.9.
